Experimental data taken from the supplement of paper PMC10331698.
± gives the standard deviation of the averaged measurements.

How the values were obtained:
Assay in all cases: level (log10 ratio to DMSO vehicle control); higher = higher biomarker level / cell amount than vehicle control
Conditions in all cases: in DMSO
[1] = compound: O=S(=O)(O)CCC(F)(F)C(F)(F)C(F)(F)C(F)(F)F [4:2 Fluorotelomer sulfonic acid]
Method: (§1)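 BioMAP Diversity Plus panel of 12 human primary cell co-culture systems (3C, 4H, LPS, SAg, BT, BF4T, BE3C, CASM3C, HDF3CGF, KF3CT, MyoF, Mphg). Compounds were added 1 h before stimulation and left for 24 h (MyoF 48 h; BT 72 h for soluble read-outs or 6 d for IgG). Biomarkers were read by ELISA, cytotoxicity by SRB, PBMC viability and proliferation by Alamar Blue. Each well value was divided by the mean of 8 DMSO control wells on the same plate and log10 transformed; duplicate blinded samples were tested at 4 concentrations.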

[2] = compound: C=C(C)C(=O)OCC(F)(F)C(F)(F)C(F)(F)F [2,2,3,3,4,4,4-Heptafluorobutyl methacrylate]
Method: as §1

[3] = compound: O=C(CC(=O)C(F)(F)C(F)(F)C(F)(F)F)c1cccs1 [(Perfluorobutyryl)-2-thenoylmethane]
Method: as §1

[4] = compound: O=C(Cl)C(F)(F)C(F)(F)C(F)(F)C(=O)Cl [Hexafluoroglutaryl chloride]
Method: as §1

[5] = compound: OCCCCC(F)(F)C(F)(F)C(F)(F)C(F)(F)F [4:4 Fluorotelomer alcohol]
Method: as §1

Methotrexate = compound: CN(Cc1cnc2nc(N)nc(N)c2n1)c1ccc(C(=O)N[C@@H](CCC(=O)O)C(=O)O)cc1 [Methotrexate]
Method: as §1

Test System | level (log10) ([1]; 6700 nM) | level (log10) ([1]; 20000 nM) | level (log10) ([1]; 60000 nM) | level (log10) ([2]; 6700 nM) | level (log10) ([2]; 20000 nM) | level (log10) ([2]; 60000 nM) | level (log10) ([3]; 6700 nM) | level (log10) ([3]; 20000 nM) | level (log10) ([4]; 6700 nM) | level (log10) ([4]; 20000 nM) | level (log10) ([4]; 60000 nM) | level (log10) ([5]; 6700 nM) | level (log10) ([5]; 20000 nM) | level (log10) ([5]; 60000 nM) | level (log10) (Methotrexate; 1500 nM) | level (log10) (Methotrexate; 4400 nM) | level (log10) (Methotrexate; 13000 nM) | level (log10) (Methotrexate; 40000 nM)
CASM3C:CCL2/MCP-1 | -0.002 ± 0.0057 | 0.0015 ± 0.011 | 0.0125 ± 0.036 | 0.005 ± 0.013 | 0.0045 ± 0.0035 | 0.013 ± 0.0071 | 0.039 ± 0.011 | -0.017 ± 0.011 | -0.0055 ± 0.013 | -0.005 ± 0.0014 | 0.011 ± 0.014 | -0.004 ± 0.011 | -0.025 ± 0.0099 | 0.0285 ± 0.059 | 0 ± 0.0028 | -0.0125 ± 0.005 | -0.002 ± 0.016 | -0.0195 ± 0.025
MyoF:CXCL8/IL-8 | 0 ± 0.0028 | 0.003 ± 0.02 | -0.0055 ± 0.018 | -0.0125 ± 0.033 | -0.017 ± 0.024 | -0.014 ± 0.041 | -0.0155 ± 0.0078 | 0.016 ± 0.018 | -0.017 ± 0.0071 | 0.014 ± 0.011 | 0.03 ± 0.0085 | 0.041 ± 0.075 | 0.0345 ± 0.1 | 0.0695 ± 0.13 | 0.0055 ± 0.028 | 0.0135 ± 0.016 | -0.0035 ± 0.033 | 0.0105 ± 0.022
BE3C:uPA | -0.001 ± 0.014 | 0 ± 0.0057 | -0.0035 ± 0.0092 | -0.005 ± 0.013 | 0.005 ± 0.011 | -0.002 ± 0.025 | 0.0235 ± 0.00071 | 0.0095 ± 0.022 | -0.0015 ± 0.0064 | -0.004 ± 0.0028 | -0.0035 ± 0.0064 | 0.0035 ± 0.011 | -0.0115 ± 0.00071 | 0.0015 ± 0.0021 | -0.013 ± 0.0028 | -0.0315 ± 0.033 | -0.0205 ± 0.052 | -0.0015 ± 0.036
MyoF:CD106/VCAM-1 | -0.0015 ± 0.013 | -0.0115 ± 0.0092 | -0.004 ± 0.0014 | 0.0045 ± 0.019 | -0.006 ± 0.0057 | 0.0035 ± 0.025 | -0.0225 ± 0.039 | -0.0315 ± 0.013 | -0.003 ± 0.0028 | 0.0015 ± 0.018 | 0.0035 ± 0.012 | -0.004 ± 0.016 | -0.01 ± 0.018 | -0.0055 ± 0.0078 | 0.0165 ± 0.015 | -0.0045 ± 0.013 | 0.038 ± 0.024 | 0.0095 ± 0.0092
lMphg:sIL-10 | 0.015 ± 0.041 | -0.0485 ± 0.032 | -0.0545 ± 0.0064 | -0.0245 ± 0.028 | -0.0155 ± 0.005 | -0.0165 ± 0.0035 | 0.0065 ± 0.071 | -0.429 ± 0.093 | -0.049 ± 0.045 | -0.102 ± 0.0035 | 0.0335 ± 0.076 | -0.096 ± 0.11 | -0.032 ± 0.0028 | -0.014 ± 0.041 | 0.076 ± 0.03 | 0.05 ± 0.011 | 0.0485 ± 0.023 | 0.014 ± 0.028
HDF3CGF:TIMP-2 | -0.026 ± 0.0028 | -0.0335 ± 0.016 | -0.009 ± 0.051 | -0.008 ± 0.0014 | -0.0105 ± 0.022 | -0.0245 ± 0.019 | -0.115 ± 0.013 | -0.408 ± 0.017 | -0.0215 ± 0.086 | -0.0155 ± 0.088 | -0.025 ± 0.075 | -0.004 ± 0.0099 | 0.024 ± 0.028 | -0.0225 ± 0.026 | -0.0655 ± 0.032 | 0 ± 0.11 | -0.005 ± 0.085 | -0.0335 ± 0.15
lMphg:SRB | -0.0035 ± 0.00071 | 0.004 ± 0.0042 | -0.001 ± 0.0042 | -0.0075 ± 0.0092 | -0.004 ± 0.0057 | 0.0005 ± 0.021 | -0.0175 ± 0.0064 | -0.106 ± 0.029 | 0.008 ± 0.0057 | 0.012 | 0.0075 ± 0.0092 | -0.015 ± 0.0028 | -0.0055 ± 0.0035 | 0.004 ± 0.033 | 0.0015 ± 0.0064 | -0.0005 ± 0.00071 | -0.002 ± 0.0085 | 0.0055 ± 0.00071
3C:CCL2/MCP-1 | 0.0035 ± 0.023 | 0.003 ± 0.054 | 0.0065 ± 0.025 | -0.0015 ± 0.0035 | -0.009 ± 0.0071 | 0.01 ± 0.027 | -0.0145 ± 0.013 | -0.166 ± 0.0085 | 0.009 ± 0.0028 | -0.0105 ± 0.035 | 0.009 ± 0.065 | 0.004 ± 0.014 | -0.0205 ± 0.011 | -0.0105 ± 0.037 | 0.0505 ± 0.0064 | -0.013 ± 0.027 | 0.0065 ± 0.0078 | 0.028 ± 0.028
